{"source": "patent US8815812B2", "about": "“Synthetic arginine substituted peptides and their use” (Inger Mattsby-Baltzer, priority 2007, dated 2014)", "test_in_all_cases": "Antimicrobial assay (MMC99) in 1% Bactopeptone", "assay_type_in_all_cases": "cell-based", "conditions_in_all_cases": "99% reduction of the inoculum", "key": {"[1]": {"system": "C. albicans", "description": "(§1) [NT] […] Washed cells were suspended in 1% Bactopeptone (BP) (Difco, USA). The concentration of bacterial or fungal cells was spectrophotometrically adjusted. Peptides serially diluted in BP by twofold steps were added in duplicate or triplicate to the wells of a microtiterplate (200 μl per well). The bacterial or yeast cell solutions were added in 10 μl volumes to give a final concentration of approximately 2×10^5 cells per ml. The concentration of the stock solution was always checked by viable counts. The microplate was incubated at 37° C. in a humid chamber for 2 h unless otherwise stated. Five μl were taken from each well and added as a drop onto a blood agar plate and incubated over night at 37° C. The concentration of lactoferrin or peptide causing a 99% reduction of the inoculum was defined as the MMC99."}, "[2]": {"system": "E. coli", "description": "as §1"}, "[3]": {"system": "S. aureus", "description": "as §1"}}, "note": "Where no end group is shown, it is not given here.", "data": [{"sequence": "GRRRRSVQWCAVSQPEATKCFQWQRNMRKVR (cysteine pairing not given here) [HLBD31]", "values": [{"measurement": "MMC99", "setting": "[1]; 2 h", "value": 25, "unit": "µg/mL"}, {"measurement": "MMC99", "setting": "[1]; 24 h", "value": 38, "unit": "µg/mL"}, {"measurement": "MMC99", "setting": "[2]; 2 h", "value": ">100", "unit": "µg/mL"}, {"measurement": "MMC99", "setting": "[2]; 24 h", "value": 50, "unit": "µg/mL"}, {"measurement": "MMC99", "setting": "[3]; 2 h", "value": 100, "unit": "µg/mL"}, {"measurement": "MMC99", "setting": "[3]; 24 h", "value": 100, "unit": "µg/mL"}]}]}
